These results are taken from patent US20200253506A1, “TREATMENT OF A DISEASE OF THE GASTROINTESTINAL TRACT WITH AN INTEGRIN INHIBITOR” (Progenity, Inc., priority 2016, published 2020).

The data set can be described thus: Tacrolimus tissue, plasma and GI content pharmacokinetics, oral vs intra-cecal ingestible device delivery. Format: in vivo. The following applies: swine; intra-cecal compared to oral; 12 hours post-dose; FIG. 76. As to the method:
No further randomization procedure was employed.
Animals in Group 1 received an ingestible device containing 0.8 mL of vehicle solution (80% alcohol, 20% HCO-60). Animals in Group 2 received orally […] liquid formulation of tacrolimus at 4 mg/0.8 mL per animal (Prograf: 5 mg/mL). Animals in Group 3 received intra-cecally an ingestible device containing tacrolimus at 1 mg in 0.8 mL per ingestible device. Animals in Group 4 received intra-cecally an ingestible device containing tacrolimus at 2 mg in 0.8 mL per ingestible device. Animals in Group 5 received intra-cecally an ingestible device containing tacrolimus at 4 mg in 0.8 mL per ingestible device. […]
Approximately 200-400 mg of rectal content were collected, if available, with a fecal swab (Copan Diagnostics Nylon Flocked Dry Swabs, 502CS01). The fecal swab was pre-weighed and weighed after collection in the collection tube (Sterile Tube and Cap No Media, PFPM913S), and the sample weight was recorded. […]
For tissue necropsy, small intestine fluid and cecal fluid were collected separately from all the animals into two separate square plastic bottles, and stored at −20° C. The length and diameter of the cecum and the colon was measured from one animal in each group and recorded for reference. […] All samples were weighed, and the tissue sample weights were recorded. […]

Structures are written as SMILES.

As to `C=CC[C@@H]1/C=C(\C)C[C@H](C)C[C@H](OC)[C@H]2O[C@@](O)(C(=O)C(=O)N3CCCC[C@H]3C(=O)O[C@H](/C(C)=C/[C@@H]3CC[C@@H](O)[C@H](OC)C3)[C@H](C)[C@@H](O)CC1=O)[C@H](C)C[C@@H]2OC` [tacrolimus], the “mean concentration of tacrolimus in the cecum tissue and the proximate colon tissue” value is “higher”.
